According to patent US11946094B2, “Combination therapies and methods of use thereof” (Augusta University Research Institute, Inc., priority 2017, dated 2024):
Like-named read-outs stand apart in the source and are kept apart here.

Test system: OVCAR-8 cells
Test: Drug-siRNA combination screen: 346-compound anticancer library at 100 nM, CCK-8 viability
Conditions: for synergy / antagonism of drug with gene knockdowns, in words / number of genes (of 18) whose knockdown synergizes with the drug: drug 100 nM; for synergy / antagonism of drug with gene knockdowns, in words: panel of 18 siRNA knockdowns; for number of genes (of 18) whose knockdown synergizes with the drug: siRNA knockdown
[1] = OVCAR-8, drug 100 nM plus siRNA knockdown of each of 18 genes, distance VAB−VA×VB in SD, single gene contributes at most +5 / −5, negative = synergy, positive = antagonism

CC(=O)c1c(C)c2cnc(Nc3ccc(N4CCNCC4)cn3)nc2n(C2CCCC2)c1=O [Palbociclib]
Score (sum of observed SD values for 18 genes) [1]: −30.45 SD

COc1ccc(COc2cc3oc(=O)c4cc(C(C)O)ccc4c3cc2OC)cc1 (centres unmarked) [Palomid 529]
Score (sum of observed SD values for 18 genes) [1]: 11.53 SD

NCCC(O)(P(=O)(O)O)P(=O)(O)O [Pamidronate Disodium]
Score (sum of observed SD values for 18 genes) [1]: −2.39 SD

CCOc1cc2ncc(C#N)c(Nc3ccc(F)c(Cl)c3)c2cc1NC(=O)/C=C/CN(C)C [Pelitinib]
Score (sum of observed SD values for 18 genes) [1]: -54.75 SD

O=C(CCc1ccc(O)cc1)c1c(O)cc(O)cc1O [Phloretin]
Score (sum of observed SD values for 18 genes) [1]: −16.21 SD

CCc1ccc(CCOc2ccc(CC3SC(=O)NC3=O)cc2)nc1 (centres unmarked) [Pioglitazone]
Score (sum of observed SD values for 18 genes) [1]: −37.6 SD

Nc1cccc2c1C(=O)N(C1CCC(=O)NC1=O)C2=O (centres unmarked) [Pomalidomide]
Score (sum of observed SD values for 18 genes) [1]: −3.4 SD

Cc1ccc(C(=O)Nc2ccc(CN3CCN(C)CC3)c(C(F)(F)F)c2)cc1C#Cc1cnc2cccnn12 [Ponatinib]
Score (sum of observed SD values for 18 genes): −28.62 SD

CCCCc1nc2cc(/C=C/C(=O)NO)ccc2n1CCN(CC)CC [Pracinostat]
Score (sum of observed SD values for 18 genes) [1]: −43.48 SD
synergy / antagonism of drug with gene knockdowns, in words (OVCAR-8): mostly synergistic
number of genes (of 18) whose knockdown synergizes with the drug (OVCAR-8): 11 genes

C[C@]12C=CC(=O)C=C1CC[C@@H]1[C@@H]2C(=O)C[C@@]2(C)[C@H]1CC[C@]2(O)C(=O)CO [Prednisone]
Score (sum of observed SD values for 18 genes) [1]: −20.64 SD

O=c1c(O)c(-c2ccc(O)c(O)c2)oc2cc(O)cc(O)c12 [Quercetin]
Score (sum of observed SD values for 18 genes) [1]: −5.63 SD

CC(C)(C)c1cc(NC(=O)Nc2ccc(-c3cn4c(n3)sc3cc(OCCN5CCOCC5)ccc34)cc2)no1 [Quizartinib]
Score (sum of observed SD values for 18 genes) [1]: −12.85 SD

COc1cc(Nc2ncc(F)c(Nc3ccc4c(n3)NC(=O)C(C)(C)O4)n2)cc(OC)c1OC [R406]
Score (sum of observed SD values for 18 genes) [1]: −28.54 SD

O=C(O)C(Cc1c[nH]c2ccccc12)N1C(=O)c2ccccc2C1=O (centres unmarked) [RG108]
Score (sum of observed SD values for 18 genes) [1]: −0.52 SD

Cc1nc2ccc(CN(C)c3ccc(C(=O)N[C@@H](CCC(=O)O)C(=O)O)s3)cc2c(=O)[nH]1 [Raltitrexed]
Score (sum of observed SD values for 18 genes) [1]: 44.53 SD

COc1ccccc1OCC(O)CN1CCN(CC(=O)Nc2c(C)cccc2C)CC1 (centres unmarked) [Ranolazine]
Score (sum of observed SD values for 18 genes) [1]: −11.08 SD

CNC(=O)c1cc(Oc2ccc(NC(=O)Nc3cc(C(C)(C)C)nn3-c3ccc4ncccc4c3)c(F)c2)ccn1 [Rebastinib]
Score (sum of observed SD values for 18 genes) [1]: 17.66 SD

CNC(=O)c1cc(Oc2ccc(NC(=O)Nc3ccc(Cl)c(C(F)(F)F)c3)c(F)c2)ccn1 [Regorafinib]
Score (sum of observed SD values for 18 genes) [1]: 3.75 SD

COc1cc(OC)c(/C=C/S(=O)(=O)Cc2ccc(OC)c(NCC(=O)O)c2)c(OC)c1 [Rigosertib]
Score (sum of observed SD values for 18 genes) [1]: 6.43 SD

CN(CCOc1ccc(CC2SC(=O)NC2=O)cc1)c1ccccn1 (centres unmarked) [Rosiglitazone]
Score (sum of observed SD values for 18 genes) [1]: −27.32 SD

CNCc1ccc(-c2[nH]c3cc(F)cc4c3c2CCNC4=O)cc1 [Rucaparib]
Score (sum of observed SD values for 18 genes) [1]: −3.34 SD

Cn1cc(C2=C(c3ccc(Cl)cc3Cl)C(=O)NC2=O)c2ccccc21 [SB216763]
Score (sum of observed SD values for 18 genes) [1]: −11.62 SD

CN(C)CCOc1ccc(-c2nc(-c3ccncc3)c(-c3ccc4c(c3)CC/C4=N\O)[nH]2)cc1 [SB590885]
Score (sum of observed SD values for 18 genes) [1]: 27.34 SD
synergy / antagonism of drug with gene knockdowns, in words (OVCAR-8): antagonistic with multiple genes

C[S+]([O-])c1ccc(-c2nc(-c3ccc(F)cc3)c(-c3ccncc3)[nH]2)cc1 (centres unmarked) [SB 203580]
Score (sum of observed SD values for 18 genes) [1]: −40.85 SD
number of genes (of 18) whose knockdown synergizes with the drug (OVCAR-8): 9 genes

NC(=O)c1ccc(-c2nc(-c3ccccn3)c(-c3ccc4c(c3)OCO4)[nH]2)cc1 [SB 431542]
Score (sum of observed SD values for 18 genes) [1]: −30.82 SD

Cc1cccc(-c2[nH]c(C(C)(C)C)nc2-c2ccc3nccnc3c2)n1 [SB 525334]
Score (sum of observed SD values for 18 genes) [1]: −32.05 SD

Cc1ccc(C(=O)N(CCCN)[C@@H](c2oc3cc(Cl)ccc3c(=O)c2Cc2ccccc2)C(C)C)cc1 [SB 743921]
Score (sum of observed SD values for 18 genes) [1]: −4.09 SD

CN1CCC(CNc2ccc3ncc(-c4cccc(OC(F)(F)F)c4)n3n2)CC1 [SGI - 1776]
Score (sum of observed SD values for 18 genes) [1]: −12.21 SD

Cn1cc(-c2ccc3nnc(Sc4ccc5ncccc5c4)n3n2)cn1 [SGX-523]
Score (sum of observed SD values for 18 genes) [1]: −8.5 SD

CC(C)(C)c1cnc(CSc2cnc(NC(=O)C3CCNCC3)s2)o1 [SNS-032]
Score (sum of observed SD values for 18 genes) [1]: -62.71 SD
synergy / antagonism of drug with gene knockdowns, in words (OVCAR-8): strong synergies with multiple genes

O=C(Nc1ccccc1-c1cn2c(CN3CCNCC3)csc2n1)c1cnc2ccccc2n1 [SRT1720]
Score (sum of observed SD values for 18 genes) [1]: −34.27 SD

Cc1cccc(Nc2nc(-c3ccncc3)cs2)c1 [STF-62247]
Score (sum of observed SD values for 18 genes) [1]: −24.47 SD

Cc1[nH]c(/C=C2\C(=O)Nc3ccc(S(=O)(=O)N(C)c4cccc(Cl)c4)cc32)c(C)c1C(=O)N1CCN(C)CC1 [SU11274]
Score (sum of observed SD values for 18 genes) [1]: −0.42 SD

CC[C@@H](C(=O)[C@@H](C)[C@@H](O)[C@H](C)[C@@H]1O[C@@H]([C@@H](CC)C(=O)O)CC[C@@H]1C)[C@H]1O[C@]2(C=C[C@@H](O)[C@]3(CC[C@@](C)([C@H]4CC[C@](O)(CC)[C@H](C)O4)O3)O2)[C@H](C)C[C@@H]1C [Salinomycin]
Score (sum of observed SD values for 18 genes) [1]: −21.61 SD

CN1CCN(CCOc2cc(OC3CCOCC3)c3c(Nc4c(Cl)ccc5c4OCO5)ncnc3c2)CC1 [Saracatinib]
Score (sum of observed SD values for 18 genes) [1]: -53.14 SD

CC[C@H](CO)Nc1nc(NCc2ccccc2)c2ncn(C(C)C)c2n1 [Seliciclib]
Score (sum of observed SD values for 18 genes): −1.72 SD

Cn1cnc2c(F)c(Nc3ccc(Br)cc3Cl)c(C(=O)NOCCO)cc21 [Selumetinib]
Score (sum of observed SD values for 18 genes) [1]: -63.99 SD
number of genes (of 18) whose knockdown synergizes with the drug (OVCAR-8): 16 genes

c1ccc2c(CCNc3ccc(Nc4ccncc4)cc3)c[nH]c2c1 [Serdemetan]
Score (sum of observed SD values for 18 genes) [1]: −29.35 SD

O=C(O)c1ccc2c(c1)nc(Nc1cccc(Cl)c1)c1ccncc12 [Silmitasertib]
Score (sum of observed SD values for 18 genes) [1]: −4.51 SD

CCC(C)(C)C(=O)O[C@H]1C[C@@H](C)C=C2C=C[C@H](C)[C@H](CC[C@@H]3C[C@@H](O)CC(=O)O3)[C@H]21 [Simvastatin]
Score (sum of observed SD values for 18 genes) [1]: −20.34 SD

CC(NC(=O)c1ccccc1/N=C/c1c(O)ccc2ccccc12)c1ccccc1 (centres unmarked) [Sirtinol]
Score (sum of observed SD values for 18 genes) [1]: −2.18 SD

CCCC(=O)[O-].[Na+] [Sodium butyrate]
Score (sum of observed SD values for 18 genes): −16.25 SD

CCCC(CCC)C(=O)[O-].[Na+] [Sodium valproate]
Score (sum of observed SD values for 18 genes) [1]: −17.88 SD

CN1CCN(c2nc(C3=C(c4c[nH]c5ccccc45)C(=O)NC3=O)c3ccccc3n2)CC1 [Sotrastaurin]
Score (sum of observed SD values for 18 genes) [1]: −16.11 SD

COc1cc(N2CCC(N3CCN(C)CC3)CC2)ccc1Nc1ncc(Cl)c(Nc2ccccc2S(=O)(=O)C(C)C)n1 [TAE684]
Score (sum of observed SD values for 18 genes) [1]: −35.61 SD

Cn1c(=O)c(F)c(Nc2ccc(I)cc2F)c2c(=O)n(C[C@@H](O)CO)cnc21 [TAK-733]
Score (sum of observed SD values for 18 genes) [1]: −40.08 SD

NC(=O)Nc1sc(-c2ccc(F)cc2)cc1C(N)=O [TPCA-1]
Score (sum of observed SD values for 18 genes) [1]: 4.7 SD
